Experimental data published in ChEMBL document CHEMBL1136114, “Advances Toward new antidepressants beyond SSRIs: 1-aryloxy-3-piperidinylpropan-2-ols with dual 5-HT(1A) receptor antagonism/SSRI activities. Part 2” (Bioorg Med Chem Lett, 2003).

Legend:
[1] = target: T1, 5-hydroxytryptamine receptor 1A (Homo sapiens, UniProt P08908); experiment: In vitro binding affinity at 5-hydroxytryptamine 1A receptor by [3H]8-OH-DPAT displacement.
T1 sequence (P08908 whole entry): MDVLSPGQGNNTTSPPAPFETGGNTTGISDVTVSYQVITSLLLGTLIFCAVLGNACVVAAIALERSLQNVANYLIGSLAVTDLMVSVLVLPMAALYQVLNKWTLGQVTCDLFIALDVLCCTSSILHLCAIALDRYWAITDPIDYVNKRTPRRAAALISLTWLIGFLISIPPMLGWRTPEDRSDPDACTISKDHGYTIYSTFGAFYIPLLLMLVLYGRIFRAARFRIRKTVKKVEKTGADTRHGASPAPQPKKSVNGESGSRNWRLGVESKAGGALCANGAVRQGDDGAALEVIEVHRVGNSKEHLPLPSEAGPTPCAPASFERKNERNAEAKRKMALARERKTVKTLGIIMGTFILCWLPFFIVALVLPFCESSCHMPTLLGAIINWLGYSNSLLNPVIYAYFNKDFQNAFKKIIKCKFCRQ

[2] = target: Sodium-dependent serotonin transporter (Rattus norvegicus, UniProt P31652); experiment: In vitro affinity at the 5-HT reuptake site using [3H]paroxetine as radioligand in rat frontal cortex membranes; type: cell membranes, Membrane
[3] = target: T2, 5-hydroxytryptamine receptor 1A (Homo sapiens) (UniProt P08908); experiment: Stimulation of binding of [35S]GTP-gamma-S, to G protein mediated by human cloned 5-hydroxytryptamine 1A receptor tested in vitro at 1 uM.; type: functional
T2 sequence (whole entry): T1 sequence (P08908 whole entry)

[4] = target: T2, 5-hydroxytryptamine receptor 1A (Homo sapiens); experiment: In vitro binding affinity towards 5-hydroxytryptamine 1A receptor using [3H]8-OH-DPAT as radioligand; details: concentration not given here
[5] = target: T1, 5-hydroxytryptamine receptor 1A; experiment: (§1) Inhibition of 5-HT induced [35S]GTP-gamma-S, binding at human cloned 5-HT 1A receptors.; type: functional
[6] = target: T2, 5-hydroxytryptamine receptor 1A (Homo sapiens); experiment: as §1; type: functional

Chain of Sodium-dependent serotonin transporter (P31652 whole entry): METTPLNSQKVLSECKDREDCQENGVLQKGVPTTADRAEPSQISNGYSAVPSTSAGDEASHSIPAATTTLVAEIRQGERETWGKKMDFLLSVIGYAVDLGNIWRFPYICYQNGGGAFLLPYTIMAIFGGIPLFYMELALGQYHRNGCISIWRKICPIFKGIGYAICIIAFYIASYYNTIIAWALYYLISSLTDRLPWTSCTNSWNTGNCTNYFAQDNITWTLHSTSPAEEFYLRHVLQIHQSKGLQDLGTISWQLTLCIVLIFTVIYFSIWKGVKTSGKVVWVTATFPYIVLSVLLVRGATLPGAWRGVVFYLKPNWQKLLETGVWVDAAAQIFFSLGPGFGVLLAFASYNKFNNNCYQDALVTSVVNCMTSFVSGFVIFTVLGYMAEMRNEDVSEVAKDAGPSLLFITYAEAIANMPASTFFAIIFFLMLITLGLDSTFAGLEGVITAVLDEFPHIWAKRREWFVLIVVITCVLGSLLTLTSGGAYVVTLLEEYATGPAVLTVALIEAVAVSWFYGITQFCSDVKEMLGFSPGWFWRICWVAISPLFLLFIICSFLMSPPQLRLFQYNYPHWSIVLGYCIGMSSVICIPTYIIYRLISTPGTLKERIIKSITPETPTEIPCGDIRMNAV

SMILES	Ki [1] [nM]	Ki [2] [nM]	Stimulation [3] [%]	inhibition [4] [%]	Ki [5] [nM]	Emin [6] [%]
C[C@H]1C[C@H](c2cc3c(C(F)(F)F)cccc3s2)CCN1C[C@H](O)COc1cccc2[nH]ccc12	24.2	3.46	–	–	–	–
COc1cccc2sc([C@@H]3CCN(C[C@H](O)COc4cccc5[nH]ccc45)[C@@H](C)C3)cc12	–	–	7.77	–	–	–
Cc1ccc2cc([C@@H]3CCN(C[C@H](O)COc4cccc5[nH]ccc45)[C@@H](C)C3)sc2c1	–	2.24	–	< 50	–	–
C[C@@H]1C[C@@H](c2cc3cc(F)ccc3s2)CCN1C[C@H](O)COc1cccc2[nH]ccc12	11.7	0.99	6.35	–	16.7	10.5
COc1cccc2sc([C@@H]3C[C@H]4CC[C@@H](C3)N4C[C@H](O)COc3cccc4[nH]ccc34)cc12 (stereo in doubt; exo) [listing 1 of 2 here]	15.7	1.31	–	–	18.7	–
COc1cccc2sc([C@H]3CCN(C[C@H](O)COc4cccc5[nH]ccc45)[C@@H](C)C3)cc12	–	–	1.38	–	–	1.43
COc1cccc2sc([C@@H]3CCN(C[C@H](O)COc4cccc5[nH]ccc45)[C@H](C)C3)cc12	–	–	1.2	–	–	2.01
C[C@H]1C[C@H](c2cc3c(Cl)cccc3s2)CCN1C[C@H](O)COc1cccc2[nH]ccc12	–	0.69	–	< 50	–	–
Cc1cccc2sc([C@@H]3CCN(C[C@H](O)COc4cccc5[nH]ccc45)[C@@H](C)C3)cc12	6.85	0.44	8.48	–	8.75	4.96
C[C@H]1C[C@H](c2cc3ccc(F)cc3s2)CCN1C[C@H](O)COc1cccc2[nH]ccc12	5.52	0.31	5.32	–	7.45	9
COc1ccc2sc([C@@H]3CCN(C[C@H](O)COc4cccc5[nH]ccc45)[C@@H](C)C3)cc2c1OC	1.3	10.8	8.38	–	0.98	4.8
COc1cccc2sc([C@@H]3C[C@H]4CC[C@@H](C3)N4C[C@H](O)COc3cccc4[nH]ccc34)cc12 (stereo in doubt; exo) [listing 2 of 2 here]	–	–	7.22	–	–	4.02
COc1cccc2sc([C@H]3CCN(C[C@H](O)COc4cccc5[nH]ccc45)[C@H](C)C3)cc12	–	–	4.41	–	–	5.97
COc1cccc2sc([C@@H]3C[C@H]4CC[C@@H](C3)N4C[C@H](O)COc3cccc4[nH]ccc34)cc12 (stereo in doubt; endo) [listing 1 of 2 here]	–	0.17	–	–	–	–
COc1ccc2cc([C@@H]3CCN(C[C@H](O)COc4cccc5[nH]ccc45)[C@@H](C)C3)sc2c1	14.5	1.1	5.26	–	2.98	6.67
COc1cccc2sc([C@@H]3C[C@H]4CC[C@@H](C3)N4C[C@H](O)COc3cccc4[nH]ccc34)cc12 (stereo in doubt; endo) [listing 2 of 2 here]	–	–	–	> 50	–	–
C[C@H]1C[C@H](c2cc3c(F)cccc3s2)CCN1C[C@H](O)COc1cccc2[nH]ccc12	–	1.16	5.37	–	4.88	7.44
O[C@H](COc1cccc2[nH]ccc12)CN1[C@@H]2CC[C@H]1C[C@H](c1cc3ccccc3s1)C2	30.5	0.07	9.26	–	70.1	9.4
C[C@H]1C[C@@H](c2cc3cc(F)ccc3s2)CCN1C[C@H](O)COc1cccc2[nH]ccc12	36.8	4.22	3.24	–	16.5	7.87
C[C@H]1C[C@H](c2cc3ccccc3s2)CCN1C[C@H](O)COc1cccc2[nH]ccc12	3.09	0.51	6.32	–	3.28	7.5
Cc1cc(C)c2cc([C@@H]3CCN(C[C@H](O)COc4cccc5[nH]ccc45)[C@@H](C)C3)sc2c1	94.9	1.93	–	–	–	–
C[C@H]1C[C@H](c2cc3ccc(Cl)cc3s2)CCN1C[C@H](O)COc1cccc2[nH]ccc12	24.8	1.1	8.49	–	11.7	7.99
C[C@H]1C[C@H](c2cc3cc(Cl)ccc3s2)CCN1C[C@H](O)COc1cccc2[nH]ccc12	8.34	0.58	3.97	–	5.26	6.81
C[C@@H]1C[C@H](c2cc3cc(F)ccc3s2)CCN1C[C@H](O)COc1cccc2[nH]ccc12	8.77	3.53	7.21	–	1.76	10.8
C[C@H]1C[C@H](c2cc3cccc(F)c3s2)CCN1C[C@H](O)COc1cccc2[nH]ccc12	21.9	3.47	2.66	–	4.23	6.8
C[C@H]1C[C@H](c2cc3cc(F)ccc3s2)CCN1C[C@H](O)COc1cccc2[nH]ccc12	6.4	0.39	7.68	–	5.67	7.69
